The values below come from ChEMBL document CHEMBL1208739, “Synthesis and SAR of azolopyrimidines as potent and selective dipeptidyl peptidase-4 (DPP4) inhibitors for type 2 diabetes” (Bioorg Med Chem Lett, 2010).

Some results are limits rather than exact numbers.

Data set [1] has as its target Voltage-gated inwardly rectifying potassium channel KCNH2 (Homo sapiens, UniProt Q12809). Briefly: Inhibition of human ERG.
The next data set concerns the target Dipeptidyl peptidase 9 (Homo sapiens, UniProt Q86TI2). Description: Inhibition of human DPP89.
In a further data set the target is Dipeptidyl peptidase 8 (Homo sapiens, UniProt Q6V1X1). Description: Inhibition of human DPP8.
Sequence of Dipeptidyl peptidase 8 (Q6V1X1 whole entry): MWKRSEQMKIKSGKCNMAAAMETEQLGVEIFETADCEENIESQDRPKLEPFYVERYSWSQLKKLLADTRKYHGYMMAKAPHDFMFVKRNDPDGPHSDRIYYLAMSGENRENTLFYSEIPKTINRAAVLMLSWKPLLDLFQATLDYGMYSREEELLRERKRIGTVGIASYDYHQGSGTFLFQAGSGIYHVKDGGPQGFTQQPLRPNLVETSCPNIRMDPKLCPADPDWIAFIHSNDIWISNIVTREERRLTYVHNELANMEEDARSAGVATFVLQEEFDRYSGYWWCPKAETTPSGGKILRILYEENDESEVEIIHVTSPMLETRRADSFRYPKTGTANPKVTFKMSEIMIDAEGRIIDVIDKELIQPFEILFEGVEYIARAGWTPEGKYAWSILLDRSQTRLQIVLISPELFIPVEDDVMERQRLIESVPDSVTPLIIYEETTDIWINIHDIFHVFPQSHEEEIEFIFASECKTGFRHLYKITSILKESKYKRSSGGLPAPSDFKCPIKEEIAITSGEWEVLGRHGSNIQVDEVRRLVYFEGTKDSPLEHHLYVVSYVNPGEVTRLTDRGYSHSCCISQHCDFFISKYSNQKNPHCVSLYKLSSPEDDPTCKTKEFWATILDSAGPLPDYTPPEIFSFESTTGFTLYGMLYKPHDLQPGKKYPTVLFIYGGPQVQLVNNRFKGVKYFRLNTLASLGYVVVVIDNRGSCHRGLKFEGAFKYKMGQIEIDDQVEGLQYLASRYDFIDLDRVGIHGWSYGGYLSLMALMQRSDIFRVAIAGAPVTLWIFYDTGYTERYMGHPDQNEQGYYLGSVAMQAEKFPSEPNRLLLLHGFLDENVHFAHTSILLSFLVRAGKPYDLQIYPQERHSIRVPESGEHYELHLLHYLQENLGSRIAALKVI
Data set [2] deals with Mus musculus. Description: Antidiabetic activity in ob/ob mouse assessed as increase in mean insulin level at 3 umol/kg, po measured after 15 mins of glucose challenge by oral glucose tolerance test. Type of data set: functional.
For a further data set, the target named is T1, Cytochrome P450 1A2 (Homo sapiens, UniProt P05177).
T1 sequence (P05177 whole entry): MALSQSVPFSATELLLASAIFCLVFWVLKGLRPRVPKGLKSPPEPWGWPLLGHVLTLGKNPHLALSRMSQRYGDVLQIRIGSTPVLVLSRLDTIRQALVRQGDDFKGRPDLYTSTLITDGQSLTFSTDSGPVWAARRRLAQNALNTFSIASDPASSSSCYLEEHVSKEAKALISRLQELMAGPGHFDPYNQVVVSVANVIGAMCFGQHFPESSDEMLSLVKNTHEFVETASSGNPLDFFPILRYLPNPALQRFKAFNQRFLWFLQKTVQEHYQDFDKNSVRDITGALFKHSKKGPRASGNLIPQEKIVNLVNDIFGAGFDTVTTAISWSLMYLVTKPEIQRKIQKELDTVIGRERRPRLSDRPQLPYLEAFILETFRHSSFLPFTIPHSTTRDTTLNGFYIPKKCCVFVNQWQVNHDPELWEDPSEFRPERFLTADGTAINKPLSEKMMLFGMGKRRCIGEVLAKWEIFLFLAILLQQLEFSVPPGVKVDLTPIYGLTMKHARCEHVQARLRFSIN
Description: inhibition of CYP1A2. Format: ADME.

Another data set has as its target Cytochrome P450 3A4 (Homo sapiens, UniProt P08684). Briefly: inhibition of CYP3A4. Format: ADME.
In data set [3] the test system is Mus musculus. Briefly: Antidiabetic activity in ob/ob mouse assessed as increase in mean insulin level at 10 umol/kg, po measured after 15 mins of glucose challenge by oral glucose tolerance test. Format: functional.
A further data set addresses Cytochrome P450 2C9 (Homo sapiens, UniProt P11712). Briefly: inhibition of CYP2C9. Format: ADME.
In another data set the target is Cytochrome P450 2C19 (Homo sapiens, UniProt P33261). Description: inhibition of CYP2C19. Type of data set: ADME.
Sequence of Cytochrome P450 2C19 (P33261 whole entry): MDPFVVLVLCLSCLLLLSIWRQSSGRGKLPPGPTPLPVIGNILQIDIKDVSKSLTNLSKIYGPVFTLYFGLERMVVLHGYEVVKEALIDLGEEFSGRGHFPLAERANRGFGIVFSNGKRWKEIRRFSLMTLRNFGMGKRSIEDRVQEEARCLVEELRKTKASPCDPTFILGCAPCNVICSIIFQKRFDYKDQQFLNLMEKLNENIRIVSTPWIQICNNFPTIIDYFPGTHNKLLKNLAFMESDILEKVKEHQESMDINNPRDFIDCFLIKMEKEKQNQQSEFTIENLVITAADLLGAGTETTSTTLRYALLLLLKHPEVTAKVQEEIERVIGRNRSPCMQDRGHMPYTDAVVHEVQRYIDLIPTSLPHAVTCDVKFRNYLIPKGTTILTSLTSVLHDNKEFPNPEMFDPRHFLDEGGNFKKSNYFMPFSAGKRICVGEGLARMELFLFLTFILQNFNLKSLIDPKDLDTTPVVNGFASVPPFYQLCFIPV

Sequence of Dipeptidyl peptidase 9 (Q86TI2 whole entry): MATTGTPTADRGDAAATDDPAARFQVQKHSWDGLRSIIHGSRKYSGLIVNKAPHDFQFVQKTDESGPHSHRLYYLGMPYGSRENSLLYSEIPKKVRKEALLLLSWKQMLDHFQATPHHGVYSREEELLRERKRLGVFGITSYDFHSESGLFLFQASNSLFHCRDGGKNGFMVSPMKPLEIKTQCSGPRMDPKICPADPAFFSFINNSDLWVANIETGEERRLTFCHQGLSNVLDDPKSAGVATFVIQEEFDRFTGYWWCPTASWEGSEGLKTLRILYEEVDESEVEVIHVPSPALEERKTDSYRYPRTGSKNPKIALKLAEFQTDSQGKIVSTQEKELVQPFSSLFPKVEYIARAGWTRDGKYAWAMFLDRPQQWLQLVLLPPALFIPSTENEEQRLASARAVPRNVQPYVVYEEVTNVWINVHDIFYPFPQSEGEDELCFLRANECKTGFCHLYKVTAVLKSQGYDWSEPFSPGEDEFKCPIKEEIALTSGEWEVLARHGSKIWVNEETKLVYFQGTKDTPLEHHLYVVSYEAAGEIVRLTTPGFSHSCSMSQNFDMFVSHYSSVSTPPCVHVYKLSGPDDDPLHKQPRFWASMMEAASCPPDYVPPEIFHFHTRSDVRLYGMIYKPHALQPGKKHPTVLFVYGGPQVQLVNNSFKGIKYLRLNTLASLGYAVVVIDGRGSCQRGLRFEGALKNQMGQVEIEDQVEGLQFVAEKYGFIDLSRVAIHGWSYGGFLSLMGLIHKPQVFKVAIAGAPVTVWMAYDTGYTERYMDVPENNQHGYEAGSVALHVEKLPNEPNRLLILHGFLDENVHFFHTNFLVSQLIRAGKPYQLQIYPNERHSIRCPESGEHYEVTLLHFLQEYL
Sequence of Voltage-gated inwardly rectifying potassium channel KCNH2 (Q12809 whole entry): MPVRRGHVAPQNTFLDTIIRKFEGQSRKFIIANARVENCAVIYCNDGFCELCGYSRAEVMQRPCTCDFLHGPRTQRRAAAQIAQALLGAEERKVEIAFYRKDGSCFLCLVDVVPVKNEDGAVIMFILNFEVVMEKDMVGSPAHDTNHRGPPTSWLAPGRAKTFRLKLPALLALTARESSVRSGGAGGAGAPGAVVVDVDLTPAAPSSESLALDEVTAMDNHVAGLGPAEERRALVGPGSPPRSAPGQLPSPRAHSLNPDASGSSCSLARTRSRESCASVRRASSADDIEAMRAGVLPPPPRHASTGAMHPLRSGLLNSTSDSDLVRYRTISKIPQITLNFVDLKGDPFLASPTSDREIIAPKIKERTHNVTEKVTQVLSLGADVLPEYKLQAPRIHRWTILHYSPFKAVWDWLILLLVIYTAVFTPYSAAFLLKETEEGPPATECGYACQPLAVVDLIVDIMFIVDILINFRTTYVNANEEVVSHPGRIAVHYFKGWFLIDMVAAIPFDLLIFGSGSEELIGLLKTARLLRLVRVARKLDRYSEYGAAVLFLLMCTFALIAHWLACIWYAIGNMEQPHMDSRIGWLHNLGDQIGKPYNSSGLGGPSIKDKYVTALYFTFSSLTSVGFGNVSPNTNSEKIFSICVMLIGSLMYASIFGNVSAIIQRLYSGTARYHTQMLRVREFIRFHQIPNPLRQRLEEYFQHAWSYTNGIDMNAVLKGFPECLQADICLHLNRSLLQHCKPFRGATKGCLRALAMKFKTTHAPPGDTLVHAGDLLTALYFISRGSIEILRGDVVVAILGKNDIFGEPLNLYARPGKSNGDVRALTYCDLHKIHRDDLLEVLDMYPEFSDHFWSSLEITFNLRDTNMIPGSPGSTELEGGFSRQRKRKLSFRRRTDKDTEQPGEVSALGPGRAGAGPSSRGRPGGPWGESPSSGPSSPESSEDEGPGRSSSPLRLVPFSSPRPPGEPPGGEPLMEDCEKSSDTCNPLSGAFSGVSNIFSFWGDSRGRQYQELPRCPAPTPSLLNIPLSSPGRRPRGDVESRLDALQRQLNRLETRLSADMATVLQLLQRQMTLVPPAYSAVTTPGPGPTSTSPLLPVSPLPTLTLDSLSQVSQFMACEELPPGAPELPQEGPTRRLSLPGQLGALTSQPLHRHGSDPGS
Sequence of Cytochrome P450 3A4 (P08684 whole entry): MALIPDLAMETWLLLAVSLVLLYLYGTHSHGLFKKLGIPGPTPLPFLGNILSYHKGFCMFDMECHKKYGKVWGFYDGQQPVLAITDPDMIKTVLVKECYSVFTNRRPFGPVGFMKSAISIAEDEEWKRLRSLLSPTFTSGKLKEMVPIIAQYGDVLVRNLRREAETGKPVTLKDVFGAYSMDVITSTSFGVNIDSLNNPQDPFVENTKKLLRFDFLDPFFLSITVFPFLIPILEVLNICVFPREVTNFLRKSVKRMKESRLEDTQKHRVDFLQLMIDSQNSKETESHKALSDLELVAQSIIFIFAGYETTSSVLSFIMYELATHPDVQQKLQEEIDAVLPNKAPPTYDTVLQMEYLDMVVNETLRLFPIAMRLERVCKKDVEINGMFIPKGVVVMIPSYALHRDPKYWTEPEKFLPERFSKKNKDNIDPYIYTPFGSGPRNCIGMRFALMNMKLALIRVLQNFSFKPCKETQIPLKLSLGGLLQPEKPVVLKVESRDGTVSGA
Sequence of Cytochrome P450 2C9 (P11712 whole entry): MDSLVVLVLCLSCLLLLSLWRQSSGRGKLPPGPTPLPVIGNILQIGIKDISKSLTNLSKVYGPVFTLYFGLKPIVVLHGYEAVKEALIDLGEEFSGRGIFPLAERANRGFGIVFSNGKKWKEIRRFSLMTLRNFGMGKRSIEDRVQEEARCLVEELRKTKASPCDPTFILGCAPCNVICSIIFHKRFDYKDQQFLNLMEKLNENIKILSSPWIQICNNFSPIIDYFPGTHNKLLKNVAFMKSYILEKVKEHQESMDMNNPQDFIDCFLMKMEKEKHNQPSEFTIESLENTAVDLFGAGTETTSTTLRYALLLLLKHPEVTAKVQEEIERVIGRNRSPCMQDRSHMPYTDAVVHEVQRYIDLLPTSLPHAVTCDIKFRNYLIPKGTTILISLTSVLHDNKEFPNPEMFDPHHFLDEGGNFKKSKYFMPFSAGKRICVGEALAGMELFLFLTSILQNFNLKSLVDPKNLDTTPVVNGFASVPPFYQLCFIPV

One may read the Ki as the equilibrium dissociation constant of an inhibitor or competing ligand from its target. A higher Ki goes with lower affinity. Take `Cc1nc2nc(-c3ccccc3)nn2c(-c2ccc(Cl)cc2Cl)c1CN`: the “inhibition (INH)” value in data set [1] is on record as 85%. In addition, the inhibitory constant (Ki) on Dipeptidyl peptidase 9 and at Dipeptidyl peptidase 8 was over 30 µM each time.
Broadly, the IC50 is the concentration needed to halve the response being measured. Turning to `Cc1nc2nc(-c3ccccc3)cn2c(-c2ccc(Cl)cc2Cl)c1CN`, the Activity in the data set with Mus musculus [2] came to 51%; in the data set on Mus musculus [3] it was 74%. The IC50 on Cytochrome P450 1A2 (read-out: IC50) is 19 µM; at Cytochrome P450 3A4, 1 µM; against Cytochrome P450 2C9, over 40 µM; on Cytochrome P450 2C19 it was 13 µM. The “inhibition (INH)” value in data set [1] was determined as 74%. For the same molecule, the Ki on Dipeptidyl peptidase 9 and at Dipeptidyl peptidase 8 was over 30 µM in each case.
Consider `COC(=O)c1nc2nc(C)c(CN)c(-c3ccc(Cl)cc3Cl)n2n1`, for which the inhibitory constant (Ki) at Dipeptidyl peptidase 9 and on Dipeptidyl peptidase 8 was over 30 µM each time.
`Cc1nc2nc(N3CCN(C(=O)OC(C)(C)C)CC3)nn2c(-c2ccc(Cl)cc2Cl)c1CN`: the Ki on Dipeptidyl peptidase 9 and at Dipeptidyl peptidase 8 was over 30 µM throughout.
`Cc1nc2nc(N3CCSCC3)nn2c(-c2ccc(Cl)cc2Cl)c1CN`: the Ki on Dipeptidyl peptidase 9 and on Dipeptidyl peptidase 8 was over 30 µM throughout.
For the molecule `Cc1nc2nc(N3CCNCC3)nn2c(-c2ccc(Cl)cc2Cl)c1CN`, the Ki on Dipeptidyl peptidase 9 and at Dipeptidyl peptidase 8 was over 30 µM throughout.
Consider `Cc1nc2nc(N3CCOCC3)nn2c(-c2ccc(Cl)cc2Cl)c1CN`, for which the Ki on Dipeptidyl peptidase 9 was over 30 µM.
For `CCN(CC)c1nc2nc(C)c(CN)c(-c3ccc(Cl)cc3Cl)n2n1`, the inhibitory constant (Ki) at Dipeptidyl peptidase 9 and on Dipeptidyl peptidase 8 was over 30 µM throughout.
In the case of `Cc1nc2nccn2c(-c2ccc(Cl)cc2Cl)c1CN`, the Ki at Dipeptidyl peptidase 9 and on Dipeptidyl peptidase 8 was over 30 µM each time.
Take `Cc1ccc(-c2cc3nc(C)c(CN)c(-c4ccc(Cl)cc4Cl)n3n2)cc1`: the Ki was over 10 µM on Dipeptidyl peptidase 9 and over 30 µM on Dipeptidyl peptidase 8.
On the same counts, the results for `CCN(C)c1nc2nc(C)c(CN)c(-c3ccc(Cl)cc3Cl)n2n1` are over 30 µM and over 30 µM.
As to `COCCN(C)c1nc2nc(C)c(CN)c(-c3ccc(Cl)cc3Cl)n2n1`, at Dipeptidyl peptidase 9, the inhibition constant (Ki) was over 30 µM.
The molecule `COc1ccccc1-c1cn2c(-c3ccc(Cl)cc3Cl)c(CN)c(C)nc2n1` registered a Ki on Dipeptidyl peptidase 9 of over 10 µM.
Take `Cc1nc2nc(C)c(CN)c(-c3ccc(Cl)cc3Cl)n2n1`: the inhibition constant Ki at Dipeptidyl peptidase 9 and on Dipeptidyl peptidase 8 was over 30 µM in each case.
In the case of `CCC(=O)c1cnn2c(-c3ccc(Cl)cc3Cl)c(CN)c(C)nc12`, the Ki at Dipeptidyl peptidase 9 and on Dipeptidyl peptidase 8 was over 30 µM in each case.
In the case of `Cc1nc2cc(-c3ccco3)nn2c(-c2ccc(Cl)cc2Cl)c1CN`, the Ki at Dipeptidyl peptidase 9 and at Dipeptidyl peptidase 8 was over 30 µM throughout.
`Cc1nc2nc(C(=O)Nc3ccccc3)nn2c(-c2ccc(Cl)cc2Cl)c1CN`: the Ki on Dipeptidyl peptidase 9 was over 10 µM.
For the molecule `Cc1cc2nc(C)c(CN)c(-c3ccc(Cl)cc3Cl)n2n1`, the Ki on Dipeptidyl peptidase 9 and on Dipeptidyl peptidase 8 was over 30 µM in each case.
For the molecule `Cc1nc2cc(-c3ccc(Cl)cc3)nn2c(-c2ccc(Cl)cc2Cl)c1CN`, the inhibition constant Ki at Dipeptidyl peptidase 9 is over 30 µM.
Regarding `Cc1nc2nc(N3CCCC3)nn2c(-c2ccc(Cl)cc2Cl)c1CN`, the Ki on Dipeptidyl peptidase 9 is over 30 µM; at Dipeptidyl peptidase 8, over 10 µM.
On the same counts, the results for `Cc1nc2c(-c3ccccc3)cnn2c(-c2ccc(Cl)cc2Cl)c1CN` are over 30 µM and over 30 µM.
Regarding `Cc1nc2cc(-c3ccccc3)nn2c(-c2ccc(Cl)cc2Cl)c1CN`, the IC50 against Cytochrome P450 1A2 worked out at 6 µM; on Cytochrome P450 3A4, 1 µM; on Cytochrome P450 2C9, 12 µM; at Cytochrome P450 2C19, 3 µM. Also, the “inhibition (INH)” value in [1] stood at 95%. Moreover, the values for the Ki on Dipeptidyl peptidase 9 and at Dipeptidyl peptidase 8 were over 20 µM and over 30 µM, respectively.
